Consider nine molecules from PubChem BioAssay (NCI).

Among the test systems are U251 CNS; NCI-H226 lung; RPMI-8226 leukemia; M14 melanoma; ACHN renal; SK-OV-3 ovarian; UO-31 renal; BT-549 breast; OVCAR-3 ovarian; IGROV1 ovarian.
What all share (assay): growth of human tumour cells (NCI), 48 h

Molecules are shown by their SMILES.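 Test compounds were applied to cells in 96-well plates for 48 hours at 5 doses. GI50: concentration for 50% inhibition of growth. The concentration for full growth arrest is given as TGI.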 Bounds are passed on as bounds.

As to `OC(Cc1ccncc1)C(Cl)(Cl)Cl` (stereo not given), the GI50 is over 100 µM in the assay with U251 CNS; over 100 µM with NCI-H226 lung; 0.0586 µM in the assay on RPMI-8226 leukemia; over 100 µM with M14 melanoma; over 100 µM in the assay on ACHN renal; over 100 µM in the assay with SK-OV-3 ovarian. Also, the GI50 in the assay on UO-31 renal was over 100 µM; in the assay on BT-549 breast, over 100 µM; in the assay on OVCAR-3 ovarian it was 17.4 µM. The TGI in the assay with U251 CNS, with NCI-H226 lung, with RPMI-8226 leukemia, in the assay on M14 melanoma, in the assay on ACHN renal and in the assay on SK-OV-3 ovarian was over 100 µM each time. Further, the TGI in the assay with UO-31 renal, in the assay on BT-549 breast and in the assay with OVCAR-3 ovarian was over 100 µM each time.

Turning to `CCOc1cccc(/C=N/N=C2\C(=O)Nc3c(Cl)cc(Cl)cc32)c1O`, the TGI with U251 CNS, in the assay with NCI-H226 lung, in the assay on IGROV1 ovarian, with M14 melanoma, in the assay with ACHN renal and with SK-OV-3 ovarian was over 100 µM throughout. Moreover, the TGI in the assay on UO-31 renal, in the assay with BT-549 breast and in the assay with OVCAR-3 ovarian was over 100 µM in each case.

In the case of `CCOC(=O)c1c(C)nc2c(c1N)CC(=O)N2Cc1ccc(OC)cc1`, the GI50 is 4.14 µM in the assay with U251 CNS; 7.36 µM with NCI-H226 lung; 80.3 µM in the assay with IGROV1 ovarian; over 100 µM in the assay on RPMI-8226 leukemia; over 100 µM in the assay on M14 melanoma; 9.56 µM with ACHN renal. For the same molecule, the GI50 in the assay with UO-31 renal is over 100 µM; in the assay on BT-549 breast, 6.3 µM; with OVCAR-3 ovarian, 6.24 µM. Moreover, the TGI in the assay with U251 CNS, in the assay on NCI-H226 lung, in the assay on IGROV1 ovarian, in the assay with RPMI-8226 leukemia, with M14 melanoma and in the assay with ACHN renal was over 100 µM each time. Moreover, the TGI in the assay on UO-31 renal, in the assay on BT-549 breast and in the assay with OVCAR-3 ovarian was over 100 µM in each case.

On to `COC(=O)c1ccc(-c2nc3cc(Cl)c(Cl)cc3nc2C#N)cc1`, for which the GI50 with U251 CNS is 42 µM; with NCI-H226 lung, over 100 µM; in the assay with IGROV1 ovarian, over 100 µM; in the assay with M14 melanoma, over 100 µM; in the assay with ACHN renal, over 100 µM; in the assay with SK-OV-3 ovarian, over 100 µM. In addition, the GI50 in the assay on UO-31 renal, in the assay on BT-549 breast and in the assay with OVCAR-3 ovarian was over 100 µM throughout. Further, the TGI with U251 CNS, in the assay with NCI-H226 lung, in the assay with IGROV1 ovarian, in the assay on M14 melanoma, with ACHN renal and in the assay on SK-OV-3 ovarian was over 100 µM each time. For the same molecule, the TGI in the assay with UO-31 renal, in the assay with BT-549 breast and in the assay with OVCAR-3 ovarian was over 100 µM throughout.

For the molecule `CCOC(=O)/C(C=Nc1ccc(-c2nc3ccccc3[nH]2)cc1)=C(/C)O`, the GI50 is 8.74 µM in the assay with U251 CNS; 7.35 µM in the assay on IGROV1 ovarian; 8.12 µM in the assay with RPMI-8226 leukemia; 12.7 µM in the assay with M14 melanoma; 15.4 µM with ACHN renal; 22.2 µM in the assay on SK-OV-3 ovarian. For the same molecule, the GI50 with UO-31 renal is 10.3 µM; in the assay with BT-549 breast, 10 µM; in the assay with OVCAR-3 ovarian, 12.7 µM. Besides, the TGI is 15.6 µM in the assay on U251 CNS; 16.2 µM in the assay on IGROV1 ovarian; 40.1 µM with RPMI-8226 leukemia; 32 µM with M14 melanoma; 42.4 µM with ACHN renal; over 50 µM in the assay with SK-OV-3 ovarian. Moreover, the results for the TGI in the assay on UO-31 renal, in the assay with BT-549 breast and in the assay with OVCAR-3 ovarian were 31.1 µM, 24.9 µM and 31.7 µM, respectively.

Take `Cc1c[n+](=O)c2ccccc2n1[O-]`: the TGI with U251 CNS, in the assay on IGROV1 ovarian, with RPMI-8226 leukemia, in the assay on M14 melanoma, with ACHN renal and with SK-OV-3 ovarian was over 100 µM throughout. The TGI in the assay on UO-31 renal, with BT-549 breast and in the assay on OVCAR-3 ovarian was over 100 µM in each case.

Turning to `ClCc1cccc2c(CCl)cccc12`, the GI50 was 2.89 µM with U251 CNS; 12 µM with NCI-H226 lung; 2 µM in the assay on RPMI-8226 leukemia; 5.95 µM with M14 melanoma; 2.19 µM in the assay on ACHN renal; 21.2 µM in the assay on SK-OV-3 ovarian. In addition, the GI50 is 2.2 µM in the assay with UO-31 renal, 3.99 µM in the assay with BT-549 breast and 1.76 µM with OVCAR-3 ovarian. Moreover, the TGI with U251 CNS is 11.6 µM; in the assay on NCI-H226 lung, 30.6 µM; in the assay on RPMI-8226 leukemia, 7.41 µM; in the assay on M14 melanoma, 23.4 µM; in the assay with ACHN renal, 6.21 µM; in the assay on SK-OV-3 ovarian it was over 100 µM. The TGI with UO-31 renal came out at 8.87 µM; in the assay on BT-549 breast, 16.7 µM; in the assay with OVCAR-3 ovarian, 3.83 µM.

For `NS(=O)(=O)c1ccc(-n2nc(-c3ccc(Cl)cc3)cc2-c2cc(O)ccc2O)cc1`, the GI50 was 10.1 µM in the assay on NCI-H226 lung; 25.4 µM with IGROV1 ovarian; 3.15 µM in the assay on RPMI-8226 leukemia; 5.82 µM with M14 melanoma; 13.4 µM with ACHN renal; 26.5 µM with UO-31 renal. The GI50 was 23.9 µM in the assay on BT-549 breast and 4.34 µM with OVCAR-3 ovarian. Moreover, the TGI in the assay with NCI-H226 lung was 24.5 µM; in the assay with IGROV1 ovarian it was over 100 µM; in the assay with RPMI-8226 leukemia, 11.7 µM; in the assay with M14 melanoma it was 17.4 µM; in the assay with ACHN renal it was 26.2 µM; in the assay on UO-31 renal, over 100 µM. Also, the TGI in the assay on BT-549 breast amounted to 58.3 µM; in the assay with OVCAR-3 ovarian it was 13.7 µM.

`COc1ccc(C(=S)N2CCN(c3cccc(C)c3)CC2)cc1OC`: the GI50 was 5.8 µM with U251 CNS; over 100 µM in the assay on NCI-H226 lung; 3.18 µM in the assay on M14 melanoma; 5.92 µM with ACHN renal; 7.24 µM with SK-OV-3 ovarian; 4.37 µM in the assay with UO-31 renal. The results for the GI50 in the assay on BT-549 breast and with OVCAR-3 ovarian were 6.31 µM and 2.06 µM, respectively. In addition, the TGI with U251 CNS, in the assay on NCI-H226 lung, in the assay with M14 melanoma, in the assay on ACHN renal, in the assay on SK-OV-3 ovarian and in the assay with UO-31 renal was over 100 µM throughout. The TGI with BT-549 breast was over 100 µM; with OVCAR-3 ovarian, 5.16 µM.
